Data as given in US20080300147A1, “Detection and Treatment of Fibrotic Disorders” (priority 2004, published 2008).

How the values were obtained:
[1] = tested on: myometrial smooth muscle cells (MSMC); assay: Realtime PCR mRNA expression in treated MSMC; format: cell-based, human
Protocol: (§1) Isolation and Culture of Leiomyoma and Myometrial Smooth Muscle Cells. […] Only untreated tissues were used for isolation of LSMC and MSMC. […] LSMC and MSMC were cultured in 6-well plates at an approximate density of 10^6 cells/well in DMEM-supplemented media containing 10% FBS. After reaching visual confluence, the cells were washed in serum-free media and incubated for 24 hrs under serum-free, phenol red-free condition (Chegini, N et al. Mol Hum Reprod, 2002, 8:1071-8).
(§2) Quantitative RealTime PCR. Realtime PCR was utilized for verification of 10 differentially expressed and regulated genes identified in leiomyoma and myometrium as well as LSMC and MSMC from untreated and GnRHa-treated cohorts. The selection of these genes was based not only on their expression values (up or downregulation), but classification and biological functions important to leiomyoma growth and regression, regulation by ovarian steroids, GnRHa and TGF-β. They are IL-11, CITED2, Nur77, EGR3, TGIF, TIEG, p27, p57, GAS-1 and GPRK5 representing cytokines, transcription factors, cell cycle regulators and signal transduction.
(§3) Determination of TGF-β1 on global gene expression in LSMC and MSMC. All the materials utilized for this study including isolation of leiomyoma and myometrial cells are identical to those described in detail above. To determine the effect of TGF-β1 on global gene expression in LSMC and MSMC, the cells were cultured in 6-well plates at approximate density of 10^6 cells/well in DMEM-supplemented media containing 10% FBS. […] The cells were then treated with 2.5 ng/ml of TGF-β1 (R & D System, Minneapolis, […].) for 2, 6 and 12 hours. […] The cells were washed and then treated with TGF-β1 (2.5 ng/ml) for 2 hours. Parallel experiments using untreated cells were used as controls including an additional control for TGF-β type II receptor antisense and sense experiments.
(§4) Total cellular RNA was isolated from LSMC- and MSMC-treated and untreated controls and subjected to microarray analysis. To maintain standard and allow for comparative analysis, the GeneChips used in this study were utilized, simultaneously processed and their gene expression values were subjected to global normalization and transformation. Following these unsupervised assessments the coefficient of variation was calculated for each probe set across all the chips used in this study, and the selected gene expression values of this study were independently subjected to supervised learning including R programming analysis and ANOVA with false discovery rate selected at p<0.001 (Moustakas, A. Immunol Lett, 2002, 82:85-91; Verrecchia, F. et al. J Biol Chem, 2001, 276:17058-17062). The genes identified in these cohorts were analyzed for functional annotation and visualized using Database for Annotation, Visualization, and Integrated Discovery (DAVID) software with integrated GoCharts. Following the analysis, we selected 12 of the differentially expressed and regulated genes, including 10 identified and validated in leiomyoma and myometrium from untreated and GnRHa-treated cohorts, as well as LSMC and MSMC treated in vitro with GnRHa, for validation in response to TGF-β-time dependent action using Realtime PCR. They include IL-11, EGR3, CITED2, TIEG, TGIF, Nur77, p27, p57, GAS-1 and GPRK5. In addition, the expression of Runx1 and Runx2, transcription factors that interact with TGF-β receptor signaling pathways (Zavadil, J. et al. Proc Natl Acad Sci USA, 2001, 98:6686-6691), was validated in LSMC and MSMC as well as in leiomyoma and myometrium from GnRHa-treated and untreated cohorts. Detail description of the materials and methods for Realtime PCR as well as data analysis is provided in Chegini, N. et al. J Soc Gynecol Investig, 2003, 10:161-71.
(§5) Isolation and Culture of Leiomyoma and Myometrial Smooth Muscle Cells. Leiomyoma and myometrial smooth muscle cells (LSMC and MSMC) were isolated and cultured as previously described (Chegini, N. et al. Mol Hum Reprod, 2002, 8:1071-1078). […]

[2] = tested on: leiomyoma smooth muscle cells (LSMC); assay: Realtime PCR mRNA expression in treated LSMC; format: cell-based, human
Protocol: as §1, §2, §3, §4, §5

[3] = GnRHa 0.1 μM, 2, 6 and 12 hours
[4] = GnRHa 0.1 μM, within 2 to 6 hours, control levels after 12 hours

With `CCNC(=O)[C@@H]1CCCN1C(=O)[C@H](CCCNC(=N)N)NC(=O)[C@H](CC(C)C)NC(=O)[C@@H](CC(C)C)NC(=O)[C@H](Cc1ccc(O)cc1)NC(=O)[C@H](CO)NC(=O)[C@H](Cc1c[nH]c2ccccc12)NC(=O)[C@H](Cc1c[nH]cn1)NC(=O)[C@@H]1CCC(=O)N1` [GnRHa, leuprolide acetate] the “CITED2 expression in MSMC” value [1, 3] was “biphasic effect”, the “GPRK5 expression in MSMC” value [1, 3] was “inhibits” and the “Runx1 expression in MSMC” value [1, 3] was “time-dependent inhibition”. The “Runx2 expression in MSMC” value [1, 3] was “time-dependent inhibition”, the “CCN2 mRNA expression in MSMC” value ([1]; GnRHa 0.1 μM, 2, 6 and 12 hrs) was “inhibited” and the “CCN3 mRNA expression in MSMC” value ([1]; GnRHa 0.1 μM, 2, 6 and 12 hrs) was “inhibited”. The “CCN4 mRNA expression in MSMC” value ([1]; GnRHa 0.1 μM, 2, 6 and 12 hrs) was “inhibited”, the “S100A4 mRNA expression in MSMC” value ([1]; GnRHa 0.1 μM, 2, 6 and 12 hrs) was “inhibited” and the “fibulin-1C mRNA expression in MSMC” value ([1]; GnRHa 0.1 μM, 2, 6 and 12 hrs) was “inhibited”. For the same compound, the “FMOD expression in MSMC” value ([1]; GnRHa 0.1 μM, 2 and 6 hrs) was “no significant effect”, the “FMOD expression in MSMC” value ([1]; GnRHa 0.1 μM, 12 hrs) was “inhibited” and the “IL-11 expression in MSMC” value [1, 4] was “increased”. The “Nur77 expression in MSMC” value ([1]; GnRHa 0.1 μM, subsequently declined to control levels) was “rapid induction”, the “CITED2 expression in LSMC” value [2, 3] was “inhibiting” and the “GPRK5 expression in LSMC” value [2, 3] was “inhibits”. For the same compound, the “CCN2 mRNA expression in LSMC” value ([2]; GnRHa 0.1 μM, 2, 6 and 12 hrs) was “inhibited”, the “CCN3 mRNA expression in LSMC” value ([2]; GnRHa 0.1 μM, 2, 6 and 12 hrs) was “inhibited” and the “CCN4 mRNA expression in LSMC” value ([2]; GnRHa 0.1 μM, 2, 6 and 12 hrs) was “inhibited”. For the same compound, the “S100A4 mRNA expression in LSMC” value ([2]; GnRHa 0.1 μM, 2, 6 and 12 hrs) was “inhibited”, the “fibulin-1C mRNA expression in LSMC” value ([2]; GnRHa 0.1 μM, 2, 6 and 12 hrs) was “inhibited” and the “FMOD expression in LSMC” value ([2]; GnRHa 0.1 μM, 2 and 6 hrs) was “no significant effect”. The “FMOD expression in LSMC” value ([2]; GnRHa 0.1 μM, 12 hrs) was “inhibited”, the “IL-11 expression in LSMC” value [2, 4] was “increased” and the “Nur77 expression in LSMC” value ([2]; GnRHa 0.1 μM, subsequently fell below untreated levels) was “rapid induction”.
